According to PMC10145973, “Genomic Insights into Bacterial Resistance to Proline-Rich Antimicrobial Peptide Bac7” (Membranes, 2023):
Converted amounts (≈) assume the structure as drawn. Where a SMILES comes first, the peptide text is derived from it. Bridges are numbered along the chain shown (N, C = ends).

How the values were obtained:
[1] = tested on: E. coli MDR 1057 B2; details: Table 2; broth microdilution in MHB (medium ±0.9% NaCl not given), 0.1% BSA, 24 h, 37 °C; median of at least three independent experiments in triplicate
[2] = tested on: E. coli MDR 1057 P1; details: Table 2; broth microdilution in MHB (medium ±0.9% NaCl not given), 0.1% BSA, 24 h, 37 °C; median of at least three independent experiments in triplicate
[3] = tested on: E. coli MDR 1057 B3; details: Table 2; broth microdilution in MHB (medium ±0.9% NaCl not given), 0.1% BSA, 24 h, 37 °C; median of at least three independent experiments in triplicate
[4] = tested on: E. coli MDR 1057 WT; details: Table 2; broth microdilution in MHB (medium ±0.9% NaCl not given), 10^6 CFU/mL suspension, agents diluted in 0.1% BSA, 24 h, 37 °C, visible turbidity; median of at least three independent experiments in triplicate
[5] = tested on: E. coli MDR 1057 WT; experiment: microbe, parasite or virus in culture; details: Escherichia coli, MDR1057WT, 24 h, read-out: Minimum Inhibitory Concentration, WT
[6] = tested on: E. coli MDR 1057 P1; experiment: microbe, parasite or virus in culture; details: Escherichia coli, MDR1057P1, 24 h, read-out: Minimum Inhibitory Concentration, P1
[7] = tested on: E. coli MDR 1057 B3; experiment: microbe, parasite or virus in culture; details: Escherichia coli, MDR1057B3, 24 h, read-out: Minimum Inhibitory Concentration, B3
[8] = tested on: E. coli MDR 1057 B2; experiment: microbe, parasite or virus in culture; details: Escherichia coli, MDR1057B2, 24 h, read-out: Minimum Inhibitory Concentration, B2

CC(C)[C@@H]1NC(=O)[C@H](Cc2ccc(O)cc2)NC(=O)[C@H](Cc2c[nH]c3ccccc23)NC(=O)[C@@H](NC(=O)[C@H](Cc2ccccc2)NC(=O)CN)CSSC[C@@H](C(=O)N[C@@H](CC(N)=O)C(=O)O)NC(=O)[C@H](CCCNC(=N)N)NC(=O)[C@H](CCCNC(=N)N)NC(=O)[C@H](Cc2ccc(O)cc2)NC(=O)[C@@H]2CSSC[C@H](NC1=O)C(=O)N[C@@H](C)C(=O)N[C@@H](CCCNC(=N)N)C(=O)N[C@@H](CCCNC(=N)N)C(=O)N[C@@H](CC(N)=O)C(=O)NCC(=O)N[C@@H](C)C(=O)N[C@@H](CCCNC(=N)N)C(=O)N[C@@H](C(C)C)C(=O)N2 [AA139] (H-GFCWYVCARRNGARVCYRRCN-OH; disulfide 3-20, 7-16 (inferred))
Minimum Inhibitory Concentration, B2 [1]: 0.25 µM
Minimum Inhibitory Concentration, P1 [2]: 0.5 µM
Minimum Inhibitory Concentration, B3 [3]: 1 µM
Minimum Inhibitory Concentration, WT [4]: 0.25 µM

CC1(C)S[C@@H]2[C@H](NC(=O)[C@H](N)c3ccccc3)C(=O)N2[C@H]1C(=O)O [Ampicillin]
MIC [5]: 256 µM (≈ 89.4 µg/mL)
MIC [6]: 256 µM (≈ 89.4 µg/mL)
MIC [7]: 256 µM (≈ 89.4 µg/mL)
MIC [8]: 256 µM (≈ 89.4 µg/mL)

CO/N=C(\C(=O)N[C@@H]1C(=O)N2C(C(=O)O)=C(CSc3nc(=O)c(=O)[nH]n3C)CS[C@H]12)c1csc(N)n1 [Ceftriaxone]
MIC [5]: 128 µM (≈ 71 µg/mL)
MIC [6]: 128 µM (≈ 71 µg/mL)
MIC [7]: 128 µM (≈ 71 µg/mL)
MIC [8]: 128 µM (≈ 71 µg/mL)

CC[C@H](C)[C@H](NC(=O)[C@@H]1CCCN1C(=O)CNC(=O)[C@@H](NC(=O)[C@H](Cc1ccccc1)NC(=O)[C@@H]1CCCN1C(=O)CNC(=O)[C@@H](NC(=O)[C@H](CCCCN)NC(=O)[C@H](Cc1c[nH]cn1)NC(=O)[C@H](Cc1c[nH]c2ccccc12)NC(=O)[C@H](CC(C)C)NC(=O)[C@H](CCCNC(=N)N)NC(=O)[C@H](CCCCN)NC(=O)[C@H](CC(C)C)NC(=O)[C@H](CCCCN)NC(=O)[C@H](CCCCN)NC(=O)[C@H](CCCNC(=N)N)NC(=O)[C@H](Cc1ccccc1)NC(=O)[C@H](CCCNC(=N)N)NC(=O)[C@H](CCCCN)NC(=O)[C@H](Cc1ccccc1)NC(=O)[C@H](CCCNC(=N)N)NC(=O)CN)C(C)C)C(C)C)C(=O)N[C@@H](CC(C)C)C(=O)N[C@@H](Cc1c[nH]cn1)C(=O)N[C@@H](Cc1ccc(O)cc1)C(=O)O [ChMAP-28] (H-GRFKRFRKKLKRLWHKVGPFVGPILHY-OH)
Minimum Inhibitory Concentration, B2 [1]: 0.063 µM
Minimum Inhibitory Concentration, P1 [2]: 0.063 µM
Minimum Inhibitory Concentration, B3 [3]: 0.063 µM
Minimum Inhibitory Concentration, WT [4]: 0.063 µM

O=C(N[C@H](CO)[C@H](O)c1ccc([N+](=O)[O-])cc1)C(Cl)Cl [Chloramphenicol]
MIC [5]: 8 µM (≈ 2.59 µg/mL)
MIC [6]: 16 µM (≈ 5.17 µg/mL)
MIC [7]: 8 µM (≈ 2.59 µg/mL)
MIC [8]: 16 µM (≈ 5.17 µg/mL)

O=C(O)c1cn(C2CC2)c2cc(N3CCNCC3)c(F)cc2c1=O [Ciprofloxacin]
MIC [6]: 128 µM (≈ 42.4 µg/mL)
MIC [8]: 128 µM (≈ 42.4 µg/mL)

CNC(C)C1CCC(N)C(OC2C(N)CC(N)C(OC3OCC(C)(O)C(NC)C3O)C2O)O1 (stereo not drawn) [Gentamicin]
MIC [5]: 2 µM (≈ 0.955 µg/mL)
MIC [6]: 4 µM (≈ 1.91 µg/mL)
MIC [7]: 2 µM (≈ 0.955 µg/mL)
MIC [8]: 2 µM (≈ 0.955 µg/mL)

CC[C@H](C)[C@H](NC(=O)[C@H](CCCCN)NC(=O)[C@H](CCC(=O)O)NC(=O)[C@H](CCCCN)NC(=O)[C@H](CO)NC(=O)[C@H](CCCCN)NC(=O)[C@H](CCCNC(=N)N)NC(=O)[C@H](Cc1ccccc1)NC(=O)[C@H](Cc1ccccc1)NC(=O)[C@H](CC(=O)O)NC(=O)CNC(=O)[C@H](CC(C)C)NC(=O)[C@@H](N)CC(C)C)C(=O)NCC(=O)N[C@@H](CCCCN)C(=O)N[C@@H](CCC(=O)O)C(=O)N[C@@H](Cc1ccccc1)C(=O)N[C@@H](CCCCN)C(=O)N[C@@H](CCCNC(=N)N)C(=O)N[C@H](C(=O)N[C@H](C(=O)N[C@@H](CCC(N)=O)C(=O)N[C@@H](CCCNC(=N)N)C(=O)N[C@H](C(=O)N[C@@H](CCCCN)C(=O)N[C@@H](CC(=O)O)C(=O)N[C@@H](Cc1ccccc1)C(=O)N[C@@H](CC(C)C)C(=O)N[C@@H](CCCNC(=N)N)C(=O)N[C@@H](CC(N)=O)C(=O)N[C@@H](CC(C)C)C(=O)N[C@H](C(=O)N1CCC[C@H]1C(=O)N[C@@H](CCCNC(=N)N)C(=O)N[C@H](C(=O)N[C@@H](CCC(=O)O)C(=O)N[C@@H](CO)C(=O)O)[C@@H](C)O)C(C)C)[C@@H](C)CC)C(C)C)[C@@H](C)CC [LL-37]
Minimum Inhibitory Concentration, B2 [1]: 2 µM
Minimum Inhibitory Concentration, P1 [2]: 1 µM
Minimum Inhibitory Concentration, B3 [3]: 2 µM
Minimum Inhibitory Concentration, WT [4]: 4 µM

CC(C)C[C@H](NC(=O)[C@H](CCCNC(=N)N)NC(=O)[C@@H]1CCCN1C(=O)[C@@H]1CCCN1C(=O)[C@H](Cc1ccccc1)NC(=O)[C@H](Cc1ccccc1)NC(=O)[C@@H]1CCCN1C(=O)[C@@H]1CCCN1C(=O)[C@@H]1CCCN1C(=O)[C@H](CCCNC(=N)N)NC(=O)[C@@H]1CCCN1C(=O)[C@H](CCCNC(=N)N)NC(=O)[C@@H]1CCCN1C(=O)[C@H](CC(C)C)NC(=O)[C@H](Cc1ccc(O)cc1)NC(=O)[C@@H]1CCCN1C(=O)[C@@H]1CCCN1C(=O)[C@H](CCCNC(=N)N)NC(=O)[C@@H]1CCCN1C(=O)[C@H](CCCNC(=N)N)NC(=O)[C@H](CCCNC(=N)N)NC(=O)[C@@H](N)CCCNC(=N)N)C(=O)O [PR-39_1-22] (H-RRRPRPPYLPRPRPPPFFPPRL-OH)
Minimum Inhibitory Concentration, B2 [1]: >32 µM
Minimum Inhibitory Concentration, P1 [2]: 16 µM
Minimum Inhibitory Concentration, B3 [3]: >32 µM
Minimum Inhibitory Concentration, WT [4]: 2 µM

CC(C)C[C@H](NC(=O)[C@H](CCCNC(=N)N)NC(=O)CNC(=O)CNC(=O)[C@@H](N)CCCNC(=N)N)C(=O)N[C@H]1CSSC[C@@H](C(=O)N[C@H](C(=O)NCC(=O)N[C@@H](CCCNC(=N)N)C(=O)O)C(C)C)NC(=O)[C@H](C(C)C)NC(=O)[C@@H]2CSSC[C@H](NC(=O)[C@H](Cc3ccc(O)cc3)NC1=O)C(=O)N[C@@H](CCCNC(=N)N)C(=O)N[C@@H](CCCNC(=N)N)C(=O)N[C@@H](CCCNC(=N)N)C(=O)N[C@@H](Cc1ccccc1)C(=O)N2 [Protegrin-1] (H-RGGRLCYCRRRFCVCVGR-OH; disulfide 6-15, 8-13; N-terminus and C-terminus assumed)
Minimum Inhibitory Concentration, B2 [1]: 0.25 µM
Minimum Inhibitory Concentration, P1 [2]: 0.25 µM
Minimum Inhibitory Concentration, B3 [3]: 0.25 µM
Minimum Inhibitory Concentration, WT [4]: 0.25 µM

CC(C)C[C@H](NC(=O)[C@H](CCCNC(=N)N)NC(=O)[C@@H](N)CCCNC(=N)N)C(=O)N[C@@H](CCCNC(=N)N)C(=O)N1CCC[C@H]1C(=O)N[C@@H](CCCNC(=N)N)C(=O)N[C@@H](CCCNC(=N)N)C(=O)N1CCC[C@H]1C(=O)N[C@@H](CCCNC(=N)N)C(=O)N[C@@H](CC(C)C)C(=O)N1CCC[C@H]1C(=O)N[C@@H](CCCNC(=N)N)C(=O)N1CCC[C@H]1C(=O)N[C@@H](CCCNC(=N)N)C(=O)N1CCC[C@H]1C(=O)N[C@@H](CCCNC(=N)N)C(=O)N1CCC[C@H]1C(=O)N[C@@H](CCCNC(=N)N)C(=O)N1CCC[C@H]1C(=O)N[C@@H](CCCNC(=N)N)C(=O)N1CCC[C@H]1C(=O)N[C@@H](CCCNC(=N)N)C(=O)O [mini-ChBac7.5Nα] (H-RRLRPRRPRLPRPRPRPRPRPR-OH)
Minimum Inhibitory Concentration, B2 [1]: >32 µM
Minimum Inhibitory Concentration, P1 [2]: >32 µM
Minimum Inhibitory Concentration, B3 [3]: >32 µM
Minimum Inhibitory Concentration, WT [4]: 8 µM
